Assay results reported in patent US20240174639A1, “PYRIDINE DERIVATIVES USEFUL AS HCN2 MODULATORS” (King's College London, priority 2021, published 2024).
Counter-ions that a name gives are not always drawn.

Columns and labels:
Black6 strain mice = test: Bradycardia testing, heart rate by MouseOx pulse oximeter (Example 58); type: in vivo; details: awake Black6 mice
Protocol: Test compounds were administered i.p. to awake, behaving, Black6 strain mice together with a vehicle only control arm. Heart rate in the mice were measured with MouseOx pulse oximeter.
The compound of Example 2 was administered to awake, behaving, Black6 strain mice at doses ranging from 0.05 mg/kg to 2 mg/kg. The effect of the compound of Example 2 on heart beat is shown in FIG. 11 compared to ivabradine administered at a dose of 5 mg/kg i.p, and a vehicle control.

HCN2 = biological target: T1, HCN2 (Homo sapiens, UniProt Q9UL51); test: HCN2 assay using PatchXpress 7000A (Example 50A); type: cell-based; details: for IC50: PatchXpress protocol (PX); for selective for HCN2 over HCN4: PatchXpress protocol (PX) assay
T1 sequence (Q9UL51 1-889): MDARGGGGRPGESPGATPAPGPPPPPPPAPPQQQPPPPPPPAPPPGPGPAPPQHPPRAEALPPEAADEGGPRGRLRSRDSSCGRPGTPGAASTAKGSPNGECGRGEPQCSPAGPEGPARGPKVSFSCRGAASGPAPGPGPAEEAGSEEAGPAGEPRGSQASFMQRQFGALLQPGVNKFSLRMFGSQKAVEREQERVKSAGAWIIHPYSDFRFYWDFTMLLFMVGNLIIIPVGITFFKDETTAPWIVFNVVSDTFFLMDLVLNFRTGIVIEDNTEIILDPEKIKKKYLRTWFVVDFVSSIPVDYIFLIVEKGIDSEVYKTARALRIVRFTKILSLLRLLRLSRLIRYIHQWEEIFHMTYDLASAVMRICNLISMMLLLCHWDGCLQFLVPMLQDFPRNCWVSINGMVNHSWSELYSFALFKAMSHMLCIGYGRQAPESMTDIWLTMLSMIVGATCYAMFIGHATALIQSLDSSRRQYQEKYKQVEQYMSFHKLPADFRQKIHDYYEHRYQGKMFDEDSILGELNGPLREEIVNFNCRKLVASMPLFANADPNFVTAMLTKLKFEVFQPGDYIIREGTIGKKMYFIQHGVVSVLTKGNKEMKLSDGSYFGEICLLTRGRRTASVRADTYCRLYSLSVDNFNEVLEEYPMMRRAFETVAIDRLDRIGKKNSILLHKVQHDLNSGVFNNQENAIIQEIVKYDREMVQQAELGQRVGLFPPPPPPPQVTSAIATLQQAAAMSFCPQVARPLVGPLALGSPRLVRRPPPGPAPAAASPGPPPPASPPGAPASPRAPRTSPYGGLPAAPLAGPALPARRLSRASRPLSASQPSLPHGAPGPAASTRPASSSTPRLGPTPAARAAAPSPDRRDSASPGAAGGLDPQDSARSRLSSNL
Excerpt: (§1) Solutions for recording HON currents were:
For HCN1 and HCN2, the pulse protocol involved stepping from a holding potential of −30 mV to −110 mV (see FIG. 1A) for 2 seconds to evoke the current. The membrane voltage was then stepped back to −30 mV for a further 8 seconds. This sequence was evoked repeatedly every 10 seconds throughout the experiment, starting prior to drug (Control A) and during cumulative additions of 5 increasing compound concentrations, then finally a 100% inhibiting concentration of cesium chloride (CsCl, 3 mM).
(§2) The peak inward current measured at the end of the pulse to −110 mV (HCN1 and HCN2) or −130 mV (HCN4) was measured and any leak current subtracted to calculate the HCN current. The HCN current amplitude was measured after each control or compound addition and normalized to the control amplitude (Control A).
(§3) All experiments were performed at room temperature (approximately 22° C.).
(§4) Each test compound concentration was applied to the cell for seven (7) minutes, at which point the next cumulative concentration was applied. 3 mM CsCl was applied to each cell for 2 minutes at the end of each experiment (Control B) to determine 100% inhibition level of the HCN current.

WT Black6 strain mice = test: Mouse neuropathic pain model (partial sciatic nerve ligation), von Frey filament (Example 57); type: in vivo; details: day 5 after PSNL
Protocol: The compounds of Example 2 and Example 4 were tested in a mouse neuropathic pain model using WT Black6 strain mice. The model used was analogous to the model described in Seltzer Z, Dubner R, & Shir Y (1990), A novel behavioural model of neuropathic pain disorders produced in rats by partial sciatic nerve injury, Pain 43: 205-218). […] Sci Transl Med 9: eaam6072.
The test compounds were administered i.p. to the mice on day 5 following partial sciatic nerve ligation surgery, average data from 3-4 mice. The mechanical pain threshold was measured by manual von Frey filament applied to hind paw on the operated side, using the “up-down” method. The test compounds were compared to ivabradine at 5 mg/kg i.p. and i.p. injection of vehicle.

HCN4 = biological target: T2, HCN4 (Homo sapiens, UniProt Q9Y3Q4); test: HCN4 assay using PatchXpress 7000A (Example 50A); type: cell-based; details: PatchXpress protocol (PX)
T2 sequence (Q9Y3Q4 1-1203): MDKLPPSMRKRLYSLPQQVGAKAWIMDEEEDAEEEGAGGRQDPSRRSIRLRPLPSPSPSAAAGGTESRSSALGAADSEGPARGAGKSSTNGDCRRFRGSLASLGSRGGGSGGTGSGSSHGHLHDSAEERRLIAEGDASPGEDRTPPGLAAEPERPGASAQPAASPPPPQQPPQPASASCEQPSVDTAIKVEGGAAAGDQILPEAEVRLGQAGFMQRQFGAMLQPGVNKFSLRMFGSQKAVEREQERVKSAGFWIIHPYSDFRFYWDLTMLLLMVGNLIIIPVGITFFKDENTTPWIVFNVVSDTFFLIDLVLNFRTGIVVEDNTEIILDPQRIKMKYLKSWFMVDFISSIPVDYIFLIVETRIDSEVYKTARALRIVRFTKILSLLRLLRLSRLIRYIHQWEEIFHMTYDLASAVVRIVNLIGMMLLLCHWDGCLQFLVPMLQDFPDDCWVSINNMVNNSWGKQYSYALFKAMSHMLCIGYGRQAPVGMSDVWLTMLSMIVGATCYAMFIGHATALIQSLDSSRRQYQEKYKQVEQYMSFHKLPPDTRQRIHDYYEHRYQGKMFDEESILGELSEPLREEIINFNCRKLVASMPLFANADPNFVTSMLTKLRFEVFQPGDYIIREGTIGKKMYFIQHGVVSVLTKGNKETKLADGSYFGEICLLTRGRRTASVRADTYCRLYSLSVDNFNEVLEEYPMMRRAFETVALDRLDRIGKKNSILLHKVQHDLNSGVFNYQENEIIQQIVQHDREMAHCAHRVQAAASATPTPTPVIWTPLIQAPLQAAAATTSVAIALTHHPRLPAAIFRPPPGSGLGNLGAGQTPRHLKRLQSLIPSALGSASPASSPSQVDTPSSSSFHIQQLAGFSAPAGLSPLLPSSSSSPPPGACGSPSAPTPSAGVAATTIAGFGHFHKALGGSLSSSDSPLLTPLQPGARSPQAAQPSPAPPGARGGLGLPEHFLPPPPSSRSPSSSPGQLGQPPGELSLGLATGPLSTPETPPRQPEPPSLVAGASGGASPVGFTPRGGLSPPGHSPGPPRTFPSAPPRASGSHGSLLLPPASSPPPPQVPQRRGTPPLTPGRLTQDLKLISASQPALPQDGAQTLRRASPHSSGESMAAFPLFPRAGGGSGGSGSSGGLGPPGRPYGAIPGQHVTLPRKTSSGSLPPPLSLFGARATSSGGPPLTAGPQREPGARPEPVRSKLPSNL
Protocol: as §1
For HCN4, the pulse protocol involved stepping from a holding potential of −30 mV to −130 mV (see FIG. 1B) for 4 seconds to evoke the current.
as §2, §3, §4

guinea pigs [1] = test: Tinnitus, noise-exposure model, GPIAS test (Example 54); type: in vivo
Excerpt: (§5) Tinnitus in guinea pigs was monitored using the gap induced inhibition of the acoustic startle (GPIAS) test (see FIG. 5). GPIAS is reduced when tinnitus was present; see Berger, J. I. et al. Effects of the cannabinoid CB1 agonist ACEA on salicylate ototoxicity, hyperacusis and tinnitus in guinea pigs. Hearing research, (2017), and Coomber, B. et al. Neural changes accompanying tinnitus following unilateral acoustic trauma in the guinea pig. Eur J Neurosci 40, 2427-2441, (2014).
(§6) In FIG. 5, sound stimulus (above) and corresponding pinna reflex (below) are shown in freely moving guinea pigs. Stimuli with no gap and gap are presented in a randomised order. Traces contaminated by movement (the upper trace in “no gap”) were removed before analysis.
The noise-exposure model is more clinically relevant than the salicylate model, as it parallels a common cause of tinnitus in humans. A second important point is that it is long-term, while tinnitus induced by salicylate is rapidly reversed following salicylate exposure.
GPIAS returns following drug wash-out (see bar D in FIG. 7).

[2] = Evaluation of CNS penetration: plasma, brain and auditory nerve levels (Example 55); type: in vivo; details: other: injection, guinea pig, 30 min after injection, preliminary, n=2
Protocol: Ivabradine in guinea pig plasma, brain (somatosensory cortex) and auditory nerve were assayed at 30 min after injection, the time used in Example 130. Ratios of total concentrations in preliminary experiments for plasma:brain:auditory nerve were 1:0.12:0.57 (n=2). The small amount (12% of plasma level) detected in brain is largely accounted for by the presence of ivabradine within the vascular supply of the brain. As in other species, therefore, ivabradine is strongly excluded from guinea pig brain because of its hydrophilicity and Pgp substrate activity; see Young, G. T., Emery, E. C., Mooney, […]. […] Pain 155, 1708-1719, (2014).

adult mice = type: in vivo; details: tone pulses 3 kHz to 42 kHz
guinea pigs [3] = test: Tinnitus, short-term salicylate model, GPIAS test (Example 54); type: in vivo; details: salicylate 350 mg/kg i.p., 2 h, ivabradine 5 mg/kg s.c.
Excerpt: as §5, §6
Tinnitus was induced within 1-2 hours in humans by high doses of salicylate. A similar short-term tinnitus model was implemented in guinea pigs by i.p. injection of salicylate. In all animals, salicylate caused behavioural inhibition of GPIAS (see bar 2 in FIG. 6).
Salicylate (350 mg/kg, i.p.) impairs behavioural gap detection 2 h after salicylate administration (see bar 2 in of FIG. 6). Gap detection was restored by blocking HCN channels with ivabradine (5 mg/kg, s.c.).

Black6 mice = details: mouse, in vivo, ip; cited from earlier work

SMILES | bradycardia (heart rate) (Black6 strain mice; 0.2 mg/kg i.p.) | IC50 (HCN2) [nM] | selective for HCN2 over HCN4 (HCN2) | mechanical analgesia (von Frey pain threshold) (WT Black6 strain mice; 0.2 mg/kg i.p.) | IC50 (HCN4) [nM] | bradycardia (heart rate) (Black6 strain mice; 2 mg/kg i.p.) | mechanical analgesia (von Frey pain threshold) (WT Black6 strain mice; 2 mg/kg i.p.) | mechanical analgesia (von Frey pain threshold) (WT Black6 strain mice; 10 mg/kg i.p.) | effect on reduced GPIAS following noise exposure (guinea pigs [1]; guinea pigs with impaired GPIAS after unilateral noise exposure, 5 mg/kg s.c.) | effect on GPIAS in control experiments (guinea pigs [1]; noise-exposed guinea pigs showing no behavioural evidence of tinnitus, n=3) | Kp at 30 min ([2]; auditory nerve / plasma, read-out: ratio of total concentrations auditory nerve:plasma) | Kp at 0.5 h ([2]; brain (somatosensory cortex) / plasma, somatosensory cortex, read-out: ratio of total concentrations brain:plasma) | effect on ABR threshold or latency (adult mice) | effect on GPIAS (behavioural gap detection) (guinea pigs [3]) | therapeutic window between analgesia and bradycardia (Black6 mice)
Cc1ccc(C#N)nc1C[C@H](N)c1ncccc1-n1ncc2ccccc21 [Example 2, (S)-6-{2-[3-(1H-indazol-1-yl)pyridine-2-yl]-2-aminoethyl}-5-methylpyridin-2-carbonitrile hydrochloride] | minimal bradycardia | 30 | 21 times | full analgesia | 500 |  |  |  |  |  |  |  |  |  | 
N[C@@H](Cc1ccccn1)c1ncccc1-n1ncc2ccccc21 [Example 4, (S)-1-[3-(1H-indazole-1-yl)pyridine-2-yl]-2-(pyridine-2-yl)ethan-1-amine hydrochloride] |  | 1600 | more than 19 times |  | > 30000 | minimal bradycardia | maximal analgesia | maximal analgesia |  |  |  |  |  |  | 
COc1cc2c(cc1OC)CC(=O)N(CCCN(C)C[C@H]1Cc3cc(OC)c(OC)cc31)CC2 [ivabradine] |  |  |  |  |  |  |  |  | rapidly and completely reversed | without effect on GPIAS | 0.57 | 0.12 | no significant difference | reversed GPIAS | little therapeutic window
